Converted amounts (≈) assume the structure as drawn.
Columns and labels:
[1] = Solubility of Que in release medium; type: physicochemical; details: PBS containing 0.1% (w/v) Tween 80 (pH 7.4)
[2] = parameters: method as in Xiao et al., 2005; details: ref Xiao et al., 2005, cited from earlier work
[3] = parameters: method as in Justino et al., 2004; details: rats, single oral 10 mg quercetin/200 g body weight, an hour later; ref Justino et al., 2004; cited from earlier work
[4] = parameters: method as in Xiao et al., 2005; details: rats, radiolabeled quercetin by gavage, free or metabolized; ref Xiao et al., 2005; cited from earlier work
[5] = parameters: method as in Bi et al., 2019; details: piperine as a bioenhancer; ref Bi et al., 2019; cited from earlier work

SMILES | solubility [1] [µg/mL] | Solubility in artificial gastric juice ([2]; artificial gastric juice) [µg/mL] | Solubility in artificial intestinal juice ([2]; artificial intestinal juice) [µg/mL] | Solubility in water ([2]; water) | Quercetin metabolized [3] [%] | Total quercetin absorbed [4] [%] | Bioavailability of silybin [5]
O=c1c(O)c(-c2ccc(O)c(O)c2)oc2cc(O)cc(O)c12 [Quercetin, 3,3′,4′,5,7-pentahydroxyflavone] | 30 (≈ 99.3 µM) | 5.5 (≈ 18.2 µM) | 28.9 (≈ 95.6 µM) | about 0.09 μg/mL | 93 | 20 | 
O=C(/C=C/C=C/c1ccc2c(c1)OCO2)N1CCCCC1 [piperine, Piperine] |  |  |  |  |  |  | 146–181%
